Laboratory results taken from ChEMBL document CHEMBL1134601, “Coumarins derivatives as dual inhibitors of acetylcholinesterase and monoamine oxidase” (J Med Chem, 2001).

Columns and labels:
[1] = target: Acetylcholinesterase (Electrophorus electricus) (UniProt O42275)
Description: Non-competitive inhibitory activity against acetylcholinesterase (AChE)

[2] = target: Acetylcholinesterase (Electrophorus electricus) (UniProt O42275); remark: listed apart in the source
Description: Competitive inhibitory activity against acetylcholinesterase (AChE)

Chain of Acetylcholinesterase (Electrophorus electricus) (O42275 24-633 limits assumed): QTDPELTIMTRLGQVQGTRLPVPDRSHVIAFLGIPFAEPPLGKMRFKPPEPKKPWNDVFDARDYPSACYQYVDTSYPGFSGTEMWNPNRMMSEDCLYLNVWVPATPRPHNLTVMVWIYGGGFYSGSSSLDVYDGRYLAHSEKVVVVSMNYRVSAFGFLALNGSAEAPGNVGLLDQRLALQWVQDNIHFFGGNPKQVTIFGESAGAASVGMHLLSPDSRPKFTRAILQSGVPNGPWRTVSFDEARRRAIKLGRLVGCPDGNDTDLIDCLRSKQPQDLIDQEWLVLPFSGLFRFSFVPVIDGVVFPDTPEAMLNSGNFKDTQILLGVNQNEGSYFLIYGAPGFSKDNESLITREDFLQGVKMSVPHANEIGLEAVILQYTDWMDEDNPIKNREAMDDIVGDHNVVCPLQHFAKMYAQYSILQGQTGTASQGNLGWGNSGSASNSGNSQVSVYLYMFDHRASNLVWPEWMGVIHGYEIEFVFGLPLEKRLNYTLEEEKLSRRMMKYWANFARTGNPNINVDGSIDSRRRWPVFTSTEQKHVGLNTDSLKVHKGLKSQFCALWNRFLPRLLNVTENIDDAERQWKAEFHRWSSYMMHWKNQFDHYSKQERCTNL

Cc1c(C)c2ccc(OCc3cccc(N)c3)cc2oc1=O
pKinc [1]: 4.74

Cc1c(C)c2ccc(OCc3ccccc3)cc2oc1=O
pKinc [1]: 5.39

Cc1c(C)c2ccc(OCc3ccc(F)c(F)c3)cc2oc1=O
pKinc [1]: 5.06

Cc1c(C)c2ccc(OCCc3ccccc3)cc2oc1=O
pKinc [1]: 4.8

Cc1cc(=O)c2cc(OCc3ccccc3)ccc2o1
pKinc [1]: 4.53 | pKic [2]: 4.78

Cc1c(C)c2ccc(OCc3cccc(O)c3)cc2oc1=O
pKinc [1]: 4.83

Cc1ccccc1COc1ccc2c(C)c(C)c(=O)oc2c1
pKinc [1]: 4.68

O=c1ccoc2ccc(OCc3ccccc3)cc12
pKinc [1]: 4.29

Cc1c(C)c2ccc(OCc3cc(F)cc(F)c3)cc2oc1=O
pKinc [1]: 4.73

COc1ccc2c(C)c(C)c(=O)oc2c1
pKinc [1]: 4.56 | pKic [2]: 4.8

Cc1c(C)c2ccc(O)cc2oc1=O
pKinc [1]: 4 | pKic [2]: 4.54
